Our source for the Photobleaching during illumination values is patent publication US20150360047A1, “Cosmetic Biophotonic Compositions” (KLOX TECHNOLOGIES INC., priority 2012, published 2015).

The nature of the data set: Absorption/emission spectra and photobleaching of chromophores and chromophore combinations. The data set is classed as physicochemical. On the procedure: The photodynamic properties of (i) Fluorescein sodium salt at about 0.09 mg/mL, (ii) Eosin Y at about 0.305 mg/mL, and (iii) a mixture of Fluorescein sodium salt at about 0.09 mg/mL and Eosin Y at about 0.305 mg/mL, all in a gel (12% carbamide) were evaluated. A flexstation 384 II spectrophotometer was used to measure emitted fluorescence with the following parameters: mode fluorescence, excitation 460 nm, emission spectra 465-750 nm. The absorbance was read using a synergy HT microplate reader: mode absorbance; spectra between 300-650 nm. The absorption and emission spectra are shown in FIGS. 8A and 8B which indicate an energy transfer between the chromophores in the combination. It is to be reasonably inferred that this energy transfer can also occur in biophotonic compositions of the present disclosure. […]
The photodynamic properties of (i) Fluorescein sodium salt at 0.18 mg/mL final concentration, (ii) Eosin Y at about 0.305 mg/mL, and (iii) a mixture of Fluorescein sodium salt at about 0.18 mg/mL and Eosin Y at about 0.305 mg/mL in an aqueous solution were evaluated. A flexstation 384 II spectrophotometer was used to measure emitted fluorescence with the following parameters: mode fluorescence, excitation 460 nm, emission spectra 465-750 nm. The absorbance was read using a synergy HT microplate reader: mode absorbance; spectra between 300-650 nm. […]

As to `O=C([O-])c1ccccc1-c1c2cc(Br)c(=O)c(Br)c-2oc2c(Br)c([O-])c(Br)cc12.[Na+].[Na+]` [Eosin Y], the Photobleaching during illumination entry by setting is: (with Fluorescein in aqueous solution, Example 4) “Photobleaching of Eosin Y was observed”; (with Fluorescein in gel (12% carbamide), Example 3) “Photobleaching of Eosin Y was observed”.
